The values below are quoted from earlier work in patent US20040157925A1, “Stable pharmaceutical composition of pravastatin” (priority 2001, published 2004).

Each structure is given as a SMILES string.

For this data set the following is noted: pH 3 or less as found in the stomach; degrades to lactone and 3-a-hydroxy-isopravastatin.

For the compound `CC[C@H](C)C(=O)O[C@H]1C[C@H](O)C=C2C=C[C@H](C)[C@H](CC[C@@H](O)C[C@@H](O)CC(=O)O)[C@H]21` [Pravastatin sodium, (+)-(3R, 5R)-3,5-dihydroxy-7-[(1 S,2S,6S, 8S, 8aR)-6-hydroxy-2-methyl-8-[(S)-2-methylbutyryloxy]-1,2,6,7,8,8a-hexahydro-1-naphthyl]heptanoate], the “Stability in a low pH environment” value is “very unstable”.
